Laboratory results reported in publication PMC6359144 (International Journal of Molecular Sciences, 2019).
Where two headings read alike, the source gives them in different places.

How the values were obtained:
518A2 melanoma cells [1] = experiment: MTT assay, 518A2 melanoma cells; type: cell-based, human; conditions: for IC50: Homo sapiens, MTT, mean ± SD of four experiments; for effect on viability of 518A2 melanoma cells: concentrations as high as 50 µM; for IC50 after 72 h compared with IC50 after 24 h: 518A2 melanoma cells, fold lower
Protocol: (§1) HT-29 (ACC-299), HCT-116 (ACC-581) and DLD-1 (ACC-278) colon carcinoma, MCF-7 (ACC-115) breast carcinoma, KB-V1 (ACC-149), 518A2 (Department of Radiotherapy and Radiobiology, University Hospital Vienna) melanoma and Ea.Hy926 (ATCC no. CRL-2922) HUVEC derived endothelial hybrid cells line were grown in Dulbecco’s Modified Eagle Medium (DMEM; Biochrom), high glucose supplemented with 10% (v/v) fetal bovine serum (FBS; Biochrom.) and 1% (v/v) Antibiotic-Antimycotic solution (anti-anti; Thermo Scientific). HDFa human dermal fibroblasts (ATCC: PCS-201-012™) were grown in DMEM supplemented with 10% FBS, 1% anti-anti and 2 mM glutamine. The cells were incubated at 37 °C, 5% CO2, 95% humidified atmosphere. By repeated addition of topotecan or vinblastine at the maximum tolerated dose to the cell medium of MCF-7 and KB-V1 cells, the cells were rendered multidrug-resistant, indicated as MCF-7^Topo and KB-V1^Vbl, respectively. They were serially passaged following trypsinization by using 0.05% trypsin/0.02% EDTA (Biochrom). Mycoplasma contamination was routinely monitored, and only mycoplasma–free cultures were used.
(§2) MTT [3-(4,5-dimethylthiazol-2-yl)-2,5-diphenyltetrazolium bromide] (ABCR) was used to determine the cytotoxicity of test compounds as previously described. Briefly, HDFa human dermal fibroblasts and Ea.Hy926 endothelial hybrid cells (both 1 × 10^5 cells/mL, 100 µL/well), 518A2 melanoma, KB-V1^Vbl cervix carcinoma, MCF-7^Topo breast carcinoma, HT-29, DLD-1 and HCT-116 colon carcinoma (all 5 × 10^4 cells/mL, 100 µL/well) were grown in 96-well culture plates for 24 h. Then, various concentrations of the test compounds were added and the cells were incubated for 24-72 h at 37 °C. After adding 12.5 µL of a 0.5% MTT solution in PBS (final concentration 0.05%) to cell medium, microplates were incubated for 2 h and subsequently swiftly turned to discard the medium. The precipitate of formazan crystals was then dissolved in a 10% solution of SDS in DMSO containing 0.6% acetic acid. To ensure complete dissolution of formazan, microplates were incubated for at least 4 h at 37 °C. Finally, the absorbance at λ = 570 nm (formazan) and 630 nm (background) was measured using a microplate reader (Tecan F200). All experiments were carried out in quadruplicate and the percentage of viable cells was calculated as the mean ± SD with controls set to 100%. Selected graphs of MTT assays can be found in the Supporting Information (Figure S8).

[2] = tested on: HT-29 colon carcinoma cells; experiment: MTT assay, HT-29 colon carcinoma cells; type: cell-based, human; conditions: for IC50: Homo sapiens, MTT; for effect on viability of HT-29 colon carcinoma cells: concentrations as high as 50 µM
Protocol: as §1, §2

[3] = tested on: DLD-1 colon carcinoma cells; experiment: MTT assay, DLD-1 colon carcinoma cells; type: cell-based; conditions: Homo sapiens, DLD-1, read-out: IC50 DLD-1 (72 h)
Protocol: as §1, §2

[4] = tested on: HCT-116 colon carcinoma cells; experiment: MTT assay, HCT-116 colon carcinoma cells; type: cell-based; conditions: Homo sapiens, HCT-116, read-out: IC50 HCT-116 (72 h)
Protocol: as §1, §2

[5] = tested on: KB-V1^Vbl cervix carcinoma cells; experiment: MTT assay, KB-V1^Vbl cervix carcinoma cells; type: cell-based; conditions: Homo sapiens, read-out: IC50 KB-V1^Vbl (72 h)
Protocol: as §1, §2

[6] = tested on: MCF-7^Topo breast adenocarcinoma cells; experiment: MTT assay, MCF-7^Topo breast carcinoma cells; type: cell-based; conditions: Homo sapiens, MCF7/Topo, read-out: IC50 MCF-7^Topo (72 h)
Protocol: as §1, §2

[7] = tested on: Ea.Hy926 endothelial hybrid cells; experiment: MTT assay, Ea.Hy926 endothelial hybrid cells; type: cell-based; conditions: Homo sapiens, EA.hy 926, read-out: IC50 Ea.Hy926 (72 h)
Protocol: as §1, §2

[8] = biological target: T1, purified pig brain tubulin (Sus scrofa, UniProt P02550+P02554); experiment: Turbidimetric cell-free tubulin polymerization assay; type: biochemical; conditions: 10 µM, 340 nm
T1 construct: using purified pig brain tubulin; from tissue; host or cells: pig brain
Protocol: An amount of 50 µL of Brinkley’s buffer 80 (BRB80) supplemented with 20% glycerol and 3 mM GTP was given in a black 96-well half-area plate with clear bottom. Then, test compounds 4d–f (final concentration: 5 µM, or 10 µM) or vehicle (DMSO) were added. After adding 50 µL tubulin in BRB80 (10 mg/mL) was pipetted in the wells and immediately placed in a pre-heated microplate reader (Tecan). The polymerization was determined turbidimetrically at 37 °C by measuring the absorption at 340 nm for 120 min in intervals of 5 min. Values were normally distributed for each group (Shapiro–Wilk test, p > 0.05) and there was homogeneity of variance (Levene’s test, p > 0.05).

518A2 melanoma cells [9] = tested on: 518A2 melanoma cells; parameters: method as in earlier work; conditions: read-out: IC50 518A2 (72 h), MTT, and 34; cited from earlier work
[10] = tested on: HT-29 colon carcinoma cells; parameters: method as in earlier work; conditions: read-out: IC50 HT-29 (72 h), MTT, and 34; cited from earlier work
[11] = tested on: HCT-116 colon carcinoma cells; parameters: method as in earlier work; conditions: read-out: IC50 HCT-116 (72 h), MTT, and 34; cited from earlier work
[12] = tested on: MCF-7^Topo breast adenocarcinoma cells; parameters: method as in earlier work; conditions: read-out: IC50 MCF-7^Topo (72 h), MTT, and 34; cited from earlier work
[13] = tested on: Ea.Hy926 endothelial hybrid cells; parameters: method as in earlier work; conditions: read-out: IC50 Ea.Hy926 (72 h), MTT, and 34; cited from earlier work
[14] = 518A2, read-out: IC50 518A2 (72 h), 72 h
[15] = 518A2, 24 h, read-out: IC50 518A2 (24 h)
[16] = HT-29, read-out: IC50 HT-29 (72 h), 72 h
[17] = HT-29, 24 h, read-out: IC50 HT-29 (24 h)

T1 sequence (P02554 whole entry): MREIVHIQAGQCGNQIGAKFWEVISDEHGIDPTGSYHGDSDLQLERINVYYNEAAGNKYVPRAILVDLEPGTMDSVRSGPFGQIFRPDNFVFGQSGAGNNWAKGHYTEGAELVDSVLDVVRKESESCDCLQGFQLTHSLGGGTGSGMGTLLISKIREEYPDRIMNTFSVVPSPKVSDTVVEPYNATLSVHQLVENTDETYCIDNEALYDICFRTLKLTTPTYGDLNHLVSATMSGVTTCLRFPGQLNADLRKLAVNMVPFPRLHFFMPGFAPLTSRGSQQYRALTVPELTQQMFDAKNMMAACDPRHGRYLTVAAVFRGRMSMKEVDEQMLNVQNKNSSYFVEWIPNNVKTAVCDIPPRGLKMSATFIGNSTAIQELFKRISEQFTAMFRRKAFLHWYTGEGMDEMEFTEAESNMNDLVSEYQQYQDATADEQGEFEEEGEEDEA
T1 sequence (P02550 whole entry): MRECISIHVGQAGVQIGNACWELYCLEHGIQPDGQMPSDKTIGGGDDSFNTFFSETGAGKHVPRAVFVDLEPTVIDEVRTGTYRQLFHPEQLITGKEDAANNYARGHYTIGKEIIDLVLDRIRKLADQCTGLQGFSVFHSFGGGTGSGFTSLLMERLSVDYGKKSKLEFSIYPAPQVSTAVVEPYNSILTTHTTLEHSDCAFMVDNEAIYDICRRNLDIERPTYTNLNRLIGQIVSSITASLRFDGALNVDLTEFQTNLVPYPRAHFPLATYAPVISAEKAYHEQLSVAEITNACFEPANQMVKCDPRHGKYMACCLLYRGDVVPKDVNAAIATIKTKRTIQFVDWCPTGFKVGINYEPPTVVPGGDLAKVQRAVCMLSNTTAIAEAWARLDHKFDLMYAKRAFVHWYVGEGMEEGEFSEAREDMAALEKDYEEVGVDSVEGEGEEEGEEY

IC50 (518A2 melanoma cells [1]; [14]) [µM]	IC50 (518A2 melanoma cells [1]; [15]) [µM]	IC50 [2, 16] [µM]	IC50 [2, 17] [µM]	IC50 [3] [µM]	IC50 [4] [µM]	IC50 [5] [µM]	IC50 [6] [µM]	IC50 after 72 h compared with IC50 after 24 h (518A2 melanoma cells [1])	melting point [°C]	Structure (SMILES)	effect on viability of 518A2 melanoma cells (518A2 melanoma cells [1])	effect on viability of HT-29 colon carcinoma cells [2]	IC50 [7] [µM]	inhibition of tubulin polymerization [8]	IC50 (518A2 melanoma cells [9]) [µM]	IC50 [10] [µM]	IC50 [11] [µM]	IC50 [12] [µM]	IC50 [13] [µM]
> 50	> 100	> 100	> 100							COc1ccc(-c2ocnc2-c2cc(OC)c(OC)c(OC)c2)cc1OCCCC(=O)O [4j, 4-[1-Methoxy-4-(4’-(3’’,4’’,5’’-trimethoxyphenyl)oxazol-5’-yl)-2-phenoxy]butyric acid]	did not affect the viability	did not affect the viability							
0.64 ± 0.07	4.4 ± 0.1	2.8 ± 0.2	5 ± 0.2	0.92 ± 0.04	0.92 ± 0.12	2.7 ± 0.2	9.3 ± 0.8	about eight-fold		COc1ccc(-c2ocnc2-c2cc(OC)c(OC)c(OC)c2)cc1OCCCC(=O)NO [4g, N-Hydroxy-4-[1-methoxy-4-(4’-(3’’,4’’,5’’-trimethoxyphenyl)oxazol-5’-yl)-2-phenoxy]butanamide]			0.41 ± 0.04						
2.2 ± 0.3	9.4 ± 1.4	4.9 ± 0.3	4.6 ± 0.3	3.3 ± 0.5	6.5 ± 0.3	18.4 ± 3.4	6.1 ± 0.7		189	COc1ccc(-c2ocnc2-c2cc(Cl)c(OC)c(OC)c2)cc1OCCCCCC(=O)NO [4c, N-Hydroxy-6-[1-methoxy-4-(4’-(3’’-chloro-4’’,5’’-dimethoxyphenyl)oxazol-5’-yl)-2-phenoxy]hexanamide]			7.5 ± 0.5						
										COc1ccc(/C=C\c2cc(OC)c(OC)c(OC)c2)cc1O [CA-4, Combretastatin A-4]				significant inhibition of tubulin polymerization	0.018 ± 0.007	3.6 ± 0.1	0.0026 ± 0.0002	0.5 ± 0.2	0.011 ± 0.002
1 ± 0.1	10.4 ± 5.1	3.6 ± 0.1	4.2 ± 0.2	3.2 ± 0.1	2.4 ± 0.1	4 ± 0.2	2.9 ± 0.8		202	COc1ccc(-c2ocnc2-c2cc(Cl)c(OC)c(OC)c2)cc1OCCCCC(=O)NO [4b, N-Hydroxy-5-[1-methoxy-4-(4’-(3’’-chloro-4’’,5’’-dimethoxyphenyl)oxazol-5’-yl)-2-phenoxy]pentanamide]			0.57 ± 0.07						
5.6 ± 0.6	21.6 ± 3.9	6.6 ± 0.6	53.9 ± 12	5.8 ± 0.4	3.4 ± 0.4	11.1 ± 1.6	39.6 ± 5.9		118 to 120	COc1ccc(-c2ocnc2-c2cc(OC)c(OC)c(OC)c2)cc1OCCCCC(=O)NO [4h, N-Hydroxy-5-[1-methoxy-4-(4’-(3’’,4’’,5’’-trimethoxyphenyl)oxazol-5’-yl)-2-phenoxy]pentanamide]			3.4 ± 0.2						
> 50	> 100	> 50	> 100							CCOC(=O)CCCOc1cc(-c2ocnc2-c2cc(OC)c(OC)c(OC)c2)ccc1OC [3g, Ethyl 4-[1-methoxy-4-(4’-(3’’,4’’,5’’-trimethoxyphenyl)oxazol-5’-yl)-2-phenoxy]butyrate]	did not affect the viability	did not affect the viability							
0.11 ± 0.01	1.3 ± 0.4	2.9 ± 0.3	2.5 ± 0.4	0.34 ± 0.01	0.21 ± 0.01	0.15 ± 0.02	0.66 ± 0.14	about eight-fold	171 to 172	COc1ccc(-c2ocnc2-c2cc(Cl)c(OC)c(OC)c2)cc1OCCCC(=O)NO [4a, N-Hydroxy-4-[1-methoxy-4-(4’-(3’’-chloro-4’’,5’’-dimethoxyphenyl)oxazol-5’-yl)-2-phenoxy]butanamide]			0.0012 ± 0.0006						

Structure (SMILES)	IC50 (518A2 melanoma cells [1]; [14]) [µM]	IC50 (518A2 melanoma cells [1]; [15]) [µM]	IC50 [2, 16] [µM]	IC50 [2, 17] [µM]	IC50 [3] [µM]	IC50 [4] [µM]	IC50 [5] [µM]	IC50 [6] [µM]	IC50 after 72 h compared with IC50 after 24 h (518A2 melanoma cells [1])	melting point [°C]	effect on viability of 518A2 melanoma cells (518A2 melanoma cells [1])	effect on viability of HT-29 colon carcinoma cells [2]	IC50 [7] [µM]	inhibition of tubulin polymerization [8]	IC50 (518A2 melanoma cells [9]) [µM]	IC50 [10] [µM]	IC50 [11] [µM]	IC50 [12] [µM]	IC50 [13] [µM]
COc1ccc(-c2ocnc2-c2cc(OC)c(OC)c(OC)c2)cc1OCCCCCC(=O)NO [4i, N-Hydroxy-6-[1-methoxy-4-(4’-(3’’,4’’,5’’-trimethoxyphenyl)oxazol-5’-yl)-2-phenoxy]hexanamide]	3.3 ± 0.3	6.9 ± 2.5	1.7 ± 0.1	47.6 ± 10.6	1.3 ± 0.1	0.61 ± 0.07	9 ± 0.3	15.8 ± 1.4					1.7 ± 0.1						
